Measured values taken from PMC10778626, “Efficacy of Novel Quaternary Ammonium and Phosphonium Salts Differing in Cation Type and Alkyl Chain Length against Antibiotic-Resistant Staphylococcus aureus” (International Journal of Molecular Sciences, 2023).

Tests used:
[1] = system: S. aureus CECT 976; experiment: Quantitative suspension test, dose-response against planktonic bacteria; assay type: cell-based, Staphylococcus aureus; settings: 30 min exposure; for concentration inducing reductions in S. aureus log CFU/mL > 5 / MBC: S. aureus CECT 976; for MBC: Staphylococcus aureus, CECT976, 0.5 h, 37 °C, distilled water
Experimental: A quantitative suspension test to explore the dose–response relationships of QHSs by evaluating bactericidal activity was performed. For this method, overnight grown cultures were centrifuged (VWR Mega Star 600R) at 3772× g for 10 min and washed twice with phosphate-buffered saline (PBS; 1.44 g/L of […]—Labkem, Barcelona, Spain; 8 g/L of sodium chloride, 0.2 g/L of potassium chloride, and 0.24 g/L of potassium dihydrogen phosphate—VWR, Leuven, Belgium) at pH 7.4. The collected cells were resuspended in PBS and adjusted to an optical density (OD) of 0.132 ± 0.02 (λ = 600 nm). Afterwards, 100 µL of this cell suspension was aseptically transferred to 800 µL of DW and allowed to stand for 2 min. To this mixture, 100 µL of each QHS solution diluted in DMSO at the desired concentration was added. The dose–response evaluation took place for 30 min at 37 °C. In the case of the negative control (untreated cells), the QHS solution was replaced by an equal volume of DMSO or DW. At the end of the contact time, QHS neutralization was performed through the dilution-neutralization method using a universal neutralizer (1 g/L L-histidine (Merck—Tokyo, Japan), 3 g/L lecithin (Alfa Aesar—Karlsruhe, Germany), 5 g/L sodium thiosulphate (Labkem—Barcelona, Spain), 30 g/L saponin (VWR Chemicals—Leuven, Belgium), and 30 g/L polysorbate 80 (VWR Chemicals—Le Havre, France) in 0.0025 M phosphate buffer). For neutralization, the test blend (100 µL) was added to 800 µL sterile aqueous neutralizing solution and 100 µL of DW. The mixture was gently agitated and allowed to stand for 10 min, after which serial dilutions (up to 10^−5) in sterile saline solution (0.85% w/v NaCl) were prepared. Then, 10 µL of each serial dilution was plated into Petri dishes containing PCA by the drop-plating method. The plates were allowed to set, then inverted and placed in an incubator at 37 °C for 24 h. The surviving cells on the QHS neutralized samples were determined by CFU counting on each plate, ensuring the counting of dilution plates that gave between 10 and 100 CFUs. The antibacterial activity was evaluated by quantification of logarithmic reduction (log CFU/mL), according to Equation (2). log CFU/mL reduction = log (X) − log (X0), (2) where X0 and X are the counts of CFU/mL before (untreated control cells) and after quaternary salt exposure, respectively.
The QHS concentrations chosen for conducting the dose–response tests comprise of the MBC, which causes the complete reduction of planktonic cells, as well as lower concentrations. Specifically, compound 1e was evaluated at concentrations of 0.25, 0.5, 0.75, 1, 2, 4, 8, and 16 µg/mL, compound 7e at concentrations of 1, 2, 3.2, 3.5, 4, 8, and 16 µg/mL, compound 5e at concentrations of 0.5, 1, 1.3, 1.6, 2, 4, and 8 µg/mL, and compound 3e at concentrations of 0.5, 0.75, 1, 1.3, 1.6, 2, 4, and 8 µg/mL. In the case of compounds 2e, 6e, and 4e, concentrations tested were 0.5, 1, 1.6, 2, 4, and 8 µg/mL. All tests were performed in duplicate, and with a minimum of three independent repeats.
The Chick–Watson mathematical model, provided in Equation (3), is considered an adequate approach to validate the kinetics of dose–response data. log X/X0 = − Kdis C^n t (3) where X0 and X are the counts of CFU/mL before and after quaternary salt exposure, respectively; Kdis is a killing rate coefficient ((mL.µg^−1)^n.min^−1); C is the quaternary salt concentration (µg.mL^−1); n is the concentration exponent and t is the exposure time (min). The concentration dependence of killing (n) was determined using a toolbox for linear regression in GraphPad Prism (version 8.4.0, GraphPad Software, La Jolla, CA, USA). The quality of the model was evaluated through the regression coefficient (R^2).

[2] = system: S. aureus XU212, SA1199B, and RN4220; experiment: MIC/MBC by broth microdilution, ranges over the antibiotic-resistant strains; assay type: cell-based, Staphylococcus aureus
Experimental: S. aureus CECT 976, obtained from the Spanish Type Culture Collection, was used as the standard susceptibility testing control strain. This strain has been previously employed in diverse studies to validate the antimicrobial effects of novel molecules. Additional antibiotic-resistant strains, S. aureus XU212, SA1199B, and RN4220, generously provided by S. Gibbons (University College London, London, UK) were tested. […] The SA1199B strain is characterized by its resistance to fluoroquinolones due to the overexpression of the NorA efflux pump and its ciprofloxacin resistance.
The minimum inhibitory concentration (MIC) and minimum bactericidal concentration (MBC) values of all QHSs were determined by the broth microdilution method, according to the approved M7-A7 (aerobes) standards of the Clinical and Laboratory Standards Institute (CLSI) guidelines. […] Absorbance measurements were performed at the beginning (t = 0 h) and end (t = 24 h) of the incubation period using a microtiter plate absorbance reader (BMG LABTECH FLUOstar Omega). […]
Plates were incubated at 37 °C for 24 h, and growth was visually inspected. The MBC was determined as the lowest concentration of compound in which the total inhibition of growth on solid medium was observed (no colony forming units (CFUs) were detected). […]

CCCCCCCCCCCCCC[n+]1ccccc1.[Br-] [Compound 6e, 1-Tetradecylpyridin-1-ium bromide]
concentration inducing reductions in S. aureus log CFU/mL > 5 [1]: 3.2 μg/mL
maximum log CFU/mL reduction ([1]; at 4 μg/mL): 5.9 log CFU/mL

CCCCCCCCCCCCCC[n+]1cccc2ccccc21.[Br-] [Compound 5e, 1-Tetradecylquinolin-1-ium bromide]
concentration inducing reductions in S. aureus log CFU/mL > 5 [1]: 1.2 μg/mL
MBC [1]: 1.3 µg/mL
maximum log CFU/mL reduction ([1]; at 1.3 μg/mL): 6.0 log CFU/mL
MBC values, range over strains [2]: 8 µg/mL

CCCCCCCCCCCCCC[n+]1ccc(C)cc1.[Br-] [Compound 4e, 4-Methyl-1-tetradecylpyridin-1-ium bromide]
concentration inducing reductions in S. aureus log CFU/mL > 5 [1]: 3.5 μg/mL
maximum log CFU/mL reduction ([1]; at 4 μg/mL): 5.9 log CFU/mL

CCCCCCCCCCCCCC[P+](c1ccccc1)(c1ccccc1)c1ccccc1 [Compound 1e, Triphenyl(tetradecyl)phosphonium bromide]
concentration inducing reductions in S. aureus log CFU/mL > 5 [1]: 0.7 μg/mL
MBC [1]: 1 µg/mL
MBC values, range over strains [2]: 2 µg/mL

CCCCCCCCCCCCCC[n+]1ccn(C)c1.[Br-] [Compound 2e, 1-Methyl-3-tetradecyl-1H-imidazol-3-ium bromide]
concentration inducing reductions in S. aureus log CFU/mL > 5 [1]: 2.8 μg/mL

CCCCCCCCCCCCCC[n+]1ccc2ccccc2c1.[Br-] [Compound 3e, 2-Tetradecylisoquinolin-2-ium bromide]
concentration inducing reductions in S. aureus log CFU/mL > 5 [1]: 1.2 μg/mL
MBC [1]: 1.3 µg/mL
maximum log CFU/mL reduction ([1]; at 1.3 μg/mL): 6.0 log CFU/mL
